Structures can show the parent of a compound that is named as a salt. Where two headings read alike, the source gives them in different places.
Tests used:
Format in all cases: biochemical
inducible human NOS = biological target: T1, inducible human NOS (Homo sapiens, UniProt P35228); assay: Assay for inducible human NOS (citrulline formation), enzyme from cytokine-induced DLD-1 cells; details: for inhibition at 25 µM: @ 25 μM inhibitor, read-out: Human Inducible, percent (inhibition) @ 25 μM
T1 construct: Purification of NOS cytokine-induced human colorectal adenocarcinoma DLD-1 cells; endogenous in cells; host or cells: DLD-1 (ATCC No. CCL 221), induced with IFN-gamma, IL-6, TNF and IL-1beta
Procedure: (§1) NOS was assayed for the formation of citrulline following the procedure of Schmidt et al (PNAS 88 365-369, 1991) with these modifications: 20 mM Hepes, pH 7.4, 10 μg/ml calmodulin, 2.5 mM CaCl2 2.5 mM DTT, 125 μM NADPH 10 μM H4 Biopterin, 0.5 mg/ml BSA, and 1 μM L-[14C] arginine (New England Nuclear). Linearity of NOS-catalyzed rate was confirmed prior to kinetic studies that used single tine point determination of rate.
DLD-1 (ATCC No. CCL 221) were grown at 37° C., 5% CO2 in RPMI 1640 medium supplemented with L-glutamin, penicillin, streptomycin, and 10% heat-inactivated fetal bovine serum. Cells were grown to confluency and then the following cocktail of cytokines were added: 100 units/ml interferon-gamma, 200 units/ml interleukin-6, 10 ng/ml tumor necrosis factor, and 0.5 ng/mil interleukin-1β. At 10-24 hr post-induction, cells were harvested by scraping and washed with phosphate-buffered saline. Pelleted cells were stored at −70° C. Purification of the induced NOS was performed at 4° C. Crude extract was prepared by three cycles of freeze/thawing cells in TDGB (20 mM tris pH 7.5, 10% glycerol, 1 mM DTT, 2 μM tetrahydrobiopterin). Extract was applied directly onto a column of 2′,5′ ADP sepharse (Pharmacia). Resin was sequentially washed with TDGB, 0.5 M NaCl in TDGB, TDGB. NOS was eluted with 2 mM NADPH in TDGB. BSA was immediately added to give a final concentration of 1 mg/ml. NOS could be quick frozen and stored at −70° C. without loss in activity for at least 2 months.
Assay for inducible human NOS.
The formation of citrulline was assayed as described above except that 10 μM FAD was included and calmodulin and CaCl2 were excluded from the assay mix.

human placental NOS = biological target: T2, human placental NOS (Homo sapiens, UniProt P29474); assay: Assay for human placental NOS (citrulline formation); details: for inhibition at 25 µM: @ 25 μM inhibitor, read-out: Human Placental, percent (inhibition) @ 25 μM
T2 construct: Purification of NOS from human placenta; from tissue; host or cells: fresh human placenta
Procedure: as §1

Human brain NOS = biological target: T3, Human brain NOS (Homo sapiens, UniProt P29475); assay: Human brain NOS enzyme activity assay; details: for Ki: isolated enzyme from human brain
T3 construct: Purification of NOS from human brain; from tissue; host or cells: frozen human brain
Procedure: The mixture was centrifuged at 13,000 g for 1 hour and the supernatant was removed (about 2050 ml). […] The precipitate was pelleted at 13,000 g for 30 minutes and the pellet was resuspended in −400 mls of buffer A with 4 μM tetrahydrobiopterin, 1 μm FAD (Sigma), 1 μM FMN (Sigma). The solution was centrifuged at 41,000 g for 60 minutes. The supernatant was removed, frozen by pouring into liquid nitrogen, and stored overnight at −70° C. The mixture was thawed and passed through a 2′,5′ ADP-agarose column (0.4 g swelled in buffer A) at 4 ml/min. The column was washed with 100 ml buffer A, 200 ml buffer A with 500 mM NaCl, 100 ml Buffer A, then 30 ml buffer A with 5 mM NADPH. […] To the enzyme was added tetrahydrobiopterin to 10 μM, FAD and FMN to 1 μM, and tween to 0.1%. This solution was concentrated by centriprep-30 to a volume of approximately 500 μl. Human NOS was prepared completely analogously except the calmodulin-agarose column was not used.

[1] = from percent inhibition at three or more concentrations at a single time point, assuming competitive inhibition with respect to arginine, read-out: Human Inducible Ki/μM (footnote b)
[2] = from percent inhibition at three or more concentrations at a single time point, assuming competitive inhibition with respect to arginine, read-out: Human Placental Ki/μM (footnote b)
[3] = isolated enzyme from DLD-1 cells, read-out: Human Inducible Ki/μM
[4] = isolated enzyme from human placenta, read-out: Human Placental Ki/μM

T2 sequence (P29474 2-1203): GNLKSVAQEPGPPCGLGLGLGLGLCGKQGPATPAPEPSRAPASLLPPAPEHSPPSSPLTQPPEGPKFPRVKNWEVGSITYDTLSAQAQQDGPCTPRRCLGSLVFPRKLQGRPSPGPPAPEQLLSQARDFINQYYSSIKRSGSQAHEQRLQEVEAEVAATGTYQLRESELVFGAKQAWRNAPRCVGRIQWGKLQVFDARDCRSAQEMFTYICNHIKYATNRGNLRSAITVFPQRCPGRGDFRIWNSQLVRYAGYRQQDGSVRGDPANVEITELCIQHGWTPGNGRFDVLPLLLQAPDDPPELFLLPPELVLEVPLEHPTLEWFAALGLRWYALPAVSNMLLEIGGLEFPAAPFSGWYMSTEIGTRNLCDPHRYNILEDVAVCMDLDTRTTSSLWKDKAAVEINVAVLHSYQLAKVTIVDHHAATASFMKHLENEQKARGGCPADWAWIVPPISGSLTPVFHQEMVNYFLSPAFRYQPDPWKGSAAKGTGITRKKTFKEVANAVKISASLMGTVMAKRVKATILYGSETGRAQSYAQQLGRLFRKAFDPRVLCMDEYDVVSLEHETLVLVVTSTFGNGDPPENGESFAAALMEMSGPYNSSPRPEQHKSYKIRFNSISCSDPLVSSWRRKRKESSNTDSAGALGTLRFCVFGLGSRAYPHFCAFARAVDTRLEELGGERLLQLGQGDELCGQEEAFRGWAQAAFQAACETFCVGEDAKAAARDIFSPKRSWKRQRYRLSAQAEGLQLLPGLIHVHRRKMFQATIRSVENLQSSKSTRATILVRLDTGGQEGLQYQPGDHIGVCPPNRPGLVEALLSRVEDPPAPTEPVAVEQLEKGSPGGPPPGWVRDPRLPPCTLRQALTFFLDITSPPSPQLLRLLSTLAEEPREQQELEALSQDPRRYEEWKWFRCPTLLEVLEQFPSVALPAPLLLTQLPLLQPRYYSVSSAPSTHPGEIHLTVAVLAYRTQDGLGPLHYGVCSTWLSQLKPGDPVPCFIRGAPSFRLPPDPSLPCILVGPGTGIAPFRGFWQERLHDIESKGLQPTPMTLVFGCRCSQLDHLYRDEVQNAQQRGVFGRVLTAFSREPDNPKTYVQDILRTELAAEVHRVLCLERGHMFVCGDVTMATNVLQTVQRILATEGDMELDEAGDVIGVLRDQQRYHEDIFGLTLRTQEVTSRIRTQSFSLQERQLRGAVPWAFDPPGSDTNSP
T1 sequence (P35228 whole entry): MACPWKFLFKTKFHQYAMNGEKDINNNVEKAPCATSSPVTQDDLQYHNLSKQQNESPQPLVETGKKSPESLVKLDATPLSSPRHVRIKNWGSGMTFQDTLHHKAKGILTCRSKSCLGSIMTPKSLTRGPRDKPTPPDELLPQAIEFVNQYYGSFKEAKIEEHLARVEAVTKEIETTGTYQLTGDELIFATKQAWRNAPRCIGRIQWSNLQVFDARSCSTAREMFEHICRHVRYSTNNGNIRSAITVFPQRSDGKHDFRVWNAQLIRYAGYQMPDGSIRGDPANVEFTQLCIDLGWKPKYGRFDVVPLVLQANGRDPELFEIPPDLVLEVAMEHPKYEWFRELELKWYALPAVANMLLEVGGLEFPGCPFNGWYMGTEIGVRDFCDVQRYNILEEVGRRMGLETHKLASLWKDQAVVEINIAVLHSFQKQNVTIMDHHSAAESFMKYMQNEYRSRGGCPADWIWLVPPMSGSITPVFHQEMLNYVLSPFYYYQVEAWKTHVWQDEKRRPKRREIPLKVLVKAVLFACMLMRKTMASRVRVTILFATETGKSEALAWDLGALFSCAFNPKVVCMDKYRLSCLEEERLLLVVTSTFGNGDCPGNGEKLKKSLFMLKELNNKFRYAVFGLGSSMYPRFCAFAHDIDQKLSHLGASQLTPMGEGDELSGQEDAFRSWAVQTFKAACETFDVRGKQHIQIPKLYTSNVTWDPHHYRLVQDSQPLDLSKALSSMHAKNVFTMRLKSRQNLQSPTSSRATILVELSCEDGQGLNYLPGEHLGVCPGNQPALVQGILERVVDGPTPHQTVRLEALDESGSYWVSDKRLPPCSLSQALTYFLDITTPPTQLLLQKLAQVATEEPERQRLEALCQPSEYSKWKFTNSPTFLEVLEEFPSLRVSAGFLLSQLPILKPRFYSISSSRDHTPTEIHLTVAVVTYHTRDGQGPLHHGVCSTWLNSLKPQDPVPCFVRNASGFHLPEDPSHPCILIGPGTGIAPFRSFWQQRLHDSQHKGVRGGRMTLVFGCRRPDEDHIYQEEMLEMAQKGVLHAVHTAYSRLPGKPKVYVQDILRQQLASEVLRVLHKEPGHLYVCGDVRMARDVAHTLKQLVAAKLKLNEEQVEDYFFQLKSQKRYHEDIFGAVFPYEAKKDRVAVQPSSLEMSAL
T3 sequence (P29475 whole entry): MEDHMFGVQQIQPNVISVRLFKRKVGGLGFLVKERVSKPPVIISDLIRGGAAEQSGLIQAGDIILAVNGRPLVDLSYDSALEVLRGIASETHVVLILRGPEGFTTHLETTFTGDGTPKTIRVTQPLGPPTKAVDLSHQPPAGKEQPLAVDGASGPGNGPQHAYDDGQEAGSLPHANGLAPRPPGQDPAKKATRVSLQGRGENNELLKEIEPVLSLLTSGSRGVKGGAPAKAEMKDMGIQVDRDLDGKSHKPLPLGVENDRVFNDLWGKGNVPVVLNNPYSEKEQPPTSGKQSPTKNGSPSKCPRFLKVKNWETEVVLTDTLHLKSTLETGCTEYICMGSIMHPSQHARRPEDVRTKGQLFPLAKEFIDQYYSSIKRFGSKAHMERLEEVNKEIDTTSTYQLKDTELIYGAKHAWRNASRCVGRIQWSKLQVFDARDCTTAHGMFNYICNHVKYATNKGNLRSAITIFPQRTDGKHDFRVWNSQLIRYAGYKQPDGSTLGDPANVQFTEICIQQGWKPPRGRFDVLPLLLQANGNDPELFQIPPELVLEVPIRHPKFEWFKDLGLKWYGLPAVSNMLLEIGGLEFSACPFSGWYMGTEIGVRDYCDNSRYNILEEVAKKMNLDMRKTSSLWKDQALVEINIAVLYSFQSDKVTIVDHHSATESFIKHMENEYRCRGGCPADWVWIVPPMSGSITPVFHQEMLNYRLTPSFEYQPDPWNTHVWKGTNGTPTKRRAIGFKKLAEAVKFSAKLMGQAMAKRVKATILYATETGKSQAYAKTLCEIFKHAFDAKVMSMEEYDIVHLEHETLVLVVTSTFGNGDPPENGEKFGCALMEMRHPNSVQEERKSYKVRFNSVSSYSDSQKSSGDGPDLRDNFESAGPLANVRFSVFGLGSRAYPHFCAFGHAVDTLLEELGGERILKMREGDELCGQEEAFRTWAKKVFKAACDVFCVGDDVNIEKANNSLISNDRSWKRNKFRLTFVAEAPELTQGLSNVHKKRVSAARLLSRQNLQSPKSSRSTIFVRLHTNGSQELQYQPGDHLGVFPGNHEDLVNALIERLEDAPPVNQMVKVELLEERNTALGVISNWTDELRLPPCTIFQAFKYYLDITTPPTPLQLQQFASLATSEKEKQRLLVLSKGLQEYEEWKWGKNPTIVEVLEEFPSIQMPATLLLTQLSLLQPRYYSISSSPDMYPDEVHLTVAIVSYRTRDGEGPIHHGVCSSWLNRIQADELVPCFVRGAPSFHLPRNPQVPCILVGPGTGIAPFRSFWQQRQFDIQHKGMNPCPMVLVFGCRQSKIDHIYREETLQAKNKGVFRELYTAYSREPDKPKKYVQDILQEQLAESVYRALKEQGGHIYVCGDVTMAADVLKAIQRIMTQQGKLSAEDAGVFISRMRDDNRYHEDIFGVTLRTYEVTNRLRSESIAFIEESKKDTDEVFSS

Compound | Ki (inducible human NOS; [3]) | Ki (human placental NOS; [4]) | Ki (Human brain NOS) | other results
CCSC(=N)Nc1cc(C(F)(F)F)ccc1Cl [Example 2L, S-Ethyl-N-(2-chloro-5-(trifluoromethyl)phenyl)isothiourea] |  |  |  | Human Inducible, percent (inhibition), concentration not given (inducible human NOS): 20%; Human Placental, percent (inhibition), concentration not given (human placental NOS): 6%; Human Brain, percent (inhibition), concentration not given (Human brain NOS; concentration not given): 40%
N^5-(iminomethoxymethyl)-L-ornithine dihydrochloride [10^c(i)] |  |  |  | Ki (inducible human NOS; [1]): 0.22 µM; Ki (human placental NOS; [2]): 0.12 µM
CC(C)SC(=N)NCCC[C@@H](N)C(=O)O [Example 9K] | 40 µM | 30 µM | 61 µM | 
CCSC(=N)Nc1ccc(OCc2ccccc2)cc1 [Example 1B, S-ethyl-N-[4-(benzyloxy)phenyl]isothiourea] | 6.6 µM | 2.8 µM | 0.21 ± 0.01 µM | 
CCSC(=N)Nc1ccc(OC)cc1 [Example 1J, S-ethyl-N-(4-methoxyphenyl)isothiourea] | 4.9 µM | 2.7 µM | 0.29 ± 0.04 µM | 
CC(C)SC(=N)NCCC[C@H](N)C(=O)O [Example 9C, N^5-(imino(1-methylethylthio)methyl)-L-ornithine] | 0.15 µM | 2.1 µM | 0.9 µM | 
N^6-((methylpropylthio)iminomethyl-D-lysine [Example 9N] |  | 99 µM | 61 µM | 
CSC(=N)NCCCC[C@H](N)C(=O)O [Example 9A, N^6-(imino(methylthio)methyl)L-lysine] | 1.7 µM | 4.1 µM | 0.09 µM | 
CCSC(=N)Nc1ccc(Cl)c(C(F)(F)F)c1 [Example 2K, S-Ethyl-N-(4-chloro-3-(trifluoromethyl)phenyl)isothiourea] | 17 µM | 8.2 µM | 4.2 µM | 
N^6-(ethylthio)iminomethyl-D-lysine [Example 9J] | 7 µM | 1.3 µM | 0.56 µM | 
CCSC(=N)Nc1cccc(Cl)c1 [Example 2B, S-Ethyl-N-(3-chlorophenyl)isothiourea] | 2.4 µM | 1.8 µM | 0.45 µM | 
CCOC(=O)c1ccc(NC(=N)SCC)cc1 [Example 1C, S-ethyl-N-[4-(ethoxycarbonyl)phenyl]isothiourea] | > 25 µM | 12 µM | 1.6 µM | 
CCOC(=N)Nc1ccc(C(F)(F)F)cc1 [Example 3A, O-Ethyl-N-(4-(trifluoromethyl)phenyl)isourea] |  |  | 1.9 ± 0.1 µM | Human Inducible, percent (inhibition), concentration not given (inducible human NOS): 12%; Human Placental, percent (inhibition), concentration not given (human placental NOS): 35%
CSC(=N)NCCC[C@H](N)C(=O)O [Example 8] |  |  |  | Ki (inducible human NOS; from steady state inhibited rate / control rate, assuming competitive inhibition with respect to arginine, read-out: Human Inducible Ki/μM (footnote a)): 0.034 µM; Ki (human placental NOS; [2]): 0.07 µM; Kd (Human brain NOS; Kd from association and dissociation rate constants for the slow onset of inhibition, read-out: Human Brain Ki/μM (footnote c: value is a Kd)): 0.001 µM
CC(C)CSC(=N)NCCC[C@@H](N)C(=O)O [Example 9M, N^5-((2-methylpropylthio)iminethyl)-D-ornithine] | 13 µM |  | 19.5 µM | 
CCSC(=N)Nc1cccc(C(F)(F)F)c1 [Example 2E, S-Ethyl-N-[3-(trifluoromethyl)phenyl]isothiourea] | 3.2 µM | 28 µM | 1.1 ± 0.01 µM | 
N[C@@H](CCCCNC1=NCCS1)C(=O)O [Example 5A, N^6-(2-thiazolin-2-yl)-L-lysine] | 11 µM | 21 µM |  | 
CCSC(=N)Nc1ccccc1OC [Example 2H, S-Ethyl-N-(2-methoxyphenyl)isothiourea] | 1.4 µM | 1.6 µM | 0.17 ± 0.02 µM | 
CCSC(=N)Nc1ccccc1C(F)(F)F [Example 2F, S-Ethyl-N-[2-(trifluoromethyl)phenyl]isothiourea] | 22 µM | 1.8 µM | 1.4 ± 0.01 µM | 
CSC(=N)NCc1ccc(CN)cc1 [Example 14, 1-(4-(Aminomethyl)benzyl)-S-methylisothiourea] | 22.6 µM | 23.2 µM | 28 µM | 
CCSC(=N)Nc1ccc(O)cc1 [Example 1I, S-ethyl-N-(4-hydroxyphenyl)isothiourea] | 2.5 µM | 2.7 µM | 0.34 µM | 
N[C@@H](CCCNC1=NCCS1)C(=O)O [Example 5, N^5-(2-thiazolin-2-yl)-L-ornithine] | 3.3 µM | 5.5 µM |  | 
CCSC(=N)Nc1ccncc1 [Example 2M, S-Ethyl-N-(4-pyridyl)isothiourea] | 23 µM | 6.9 µM | 1 ± 0.2 µM | 
CCSC(=N)Nc1cccc(OC)c1 [Example 1A, S-ethyl-N-(3-methoxyphenyl)isothiourea] | 3.2 µM | 3.1 µM | 0.56 ± 0.02 µM | 
CSC(=N)NCc1cccc(CN)c1 [Example 13, 1-(3-(Aminomethyl)benzyl)-S-methylisothiourea] | 0.69 µM | 3.3 µM | 3 µM | 

Compound | Ki (inducible human NOS; [3]) | Ki (human placental NOS; [4]) | Ki (Human brain NOS) | other results
CC(C)SC(=N)NCCCC[C@H](N)C(=O)O [Example 9D, N^6-(imino(1-methylethylthio)methyl)L-lysine] | 22.6 µM | 23.2 µM | 28 µM | 
CCSC(=N)NCc1cccc(CN)c1 [Example 13A, 1-(3-(Aminomethyl)benzyl)S-ethylisothiourea] | 0.15 µM | 2.1 µM | 0.9 µM | 
CC(C)CSC(=N)NCCC[C@H](N)C(=O)O [Example 9E, N^5-(imino(2-methylpropylthio)methyl)-L-ornithine] | 5.3 µM | 14 µM | 5.5 µM | 
CCSC(=N)NCc1ccc(CN)cc1 [Example 14A, 1-(4-(Aminomethyl)benzyl)-S-ethylisoiourea] | 5.3 µM | 14 µM | 5.5 µM | 
CCSC(=N)Nc1ccc(N(C)C)cc1 [Example 1G, S-ethyl-N-(4-dimethylaminophenyl)isothiourea] | 29 µM | 9 µM | 1.4 ± 0.01 µM | 
CCSC(=N)Nc1ccc(Oc2ccccc2)cc1 [Example 1, S-Ethyl-N-(4-phenoxyphenyl)isothiourea] | 3.1 µM | 4 µM | 0.19 ± 0.01 µM | 
CCSC(=N)Nc1ccccc1Cl [Example 2G] | 2.9 µM | 1.8 µM | 0.17 µM | 
CCSC(=N)Nc1ccc(C)cc1 [Example 2I, S-Ethyl-N-(4-methylphenyl)isothiourea] | 1.9 µM | 1 µM | 0.18 ± 0.04 µM | 
CCSC(=N)Nc1ccc(C2CCCCC2)cc1 [Example 1H, S-ethyl-N-(4-cyclohexylphenyl)isothiourea] | 28 µM | 14 µM | 1.5 ± 0.07 µM | 
N^6-((methylthio)iminomethyl)-D-lysine [Example 9H] | 5.3 µM | 1.2 µM | 0.4 µM | 
CSC(=N)NCc1cccc(CNC(=N)SC)c1 [Example 6, N, N′-((methylthio)iminomethyl)-m-xylylenediamine] | 2.3 µM | 17 µM | 0.5 µM | 
CCSC(=N)Nc1ccccc1C(C)C [Example 2C, S-Ethyl-N-(2-isopropylphenyl)isothiourea] | 10 µM | 6.5 µM | 1.13 ± 0.02 µM | 
CCSC(=N)Nc1cccc(C(=O)O)c1 [Example 1E, S-ethyl-N-(3-carboxyphenyl)isothiourea] | 44 µM | 14 µM |  | 
CSC(=N)NCc1ccc(CNC(=N)SC)cc1 [Example 7, N,N-((methylthio)iminomethyl)-p-xylylenediamine] | 45 µM | 22 µM | 3.2 µM | 
CCSC(=N)Nc1ccc(C(F)(F)F)cc1 [Example 2, S-ethyl-N-[4-(trifluoromethyl)phenyl]isothiourea hydrochloride] |  | 9.4 µM | 0.32 ± 0.02 µM | inhibition at 25 µM (inducible human NOS): 36%
CCSC(=N)Nc1ccccc1Br [Example 1F, S-ethyl-N-(2-bromophenyl)isothiourea] | 4.7 µM | 2 µM | 0.25 ± 0.02 µM | 
CCSC(=N)Nc1ccc(C(C)C)cc1 [Example 2D, S-Ethyl-N-(4-isopropylphenyl)isothiourea] |  | 7.7 µM | 0.33 µM | 
CCOC(=N)NCc1cccc(CN)c1 [Example 12, 1-(3-(Aminomethyl)benzyl)-O-ethylisourea] | 1.7 µM | 4.1 µM | 0.09 µM | 
CCSC(=N)Nc1ccc(C(=O)O)cc1 [Example 1D, S-ethyl-N-(4-carboxyphenyl)isothiourea] |  |  |  | Human Inducible, percent (inhibition), concentration not given (inducible human NOS): 0%; inhibition at 25 µM (human placental NOS): 14%; inhibition at 25 µM (Human brain NOS; @ 25 μM inhibitor, read-out: Human Brain, percent (inhibition) @ 25 μM): 30%
CCSC(=N)Nc1cccnc1 [Example 2J, S-Ethyl-N-(3-pyridyl)isothiourea] |  | 6.9 µM | 1 µM | inhibition at 25 µM (inducible human NOS): 47%
N^5-(ethoxyiminomethyl)-L-ornithine dihydrochloride [10^c(ii)] |  |  |  | Ki (inducible human NOS; [1]): 0.1 µM; Ki (human placental NOS; from steady state inhibited rate / control rate, assuming competitive inhibition with respect to arginine, read-out: Human Placental Ki/μM (footnote a)): 0.006 µM
CCSC(=N)Nc1ccccn1 [Example 1K, S-ethyl-N-(2-pyridyl)isothiourea] |  |  | 4.8 µM | inhibition at 25 µM (inducible human NOS): 48%; inhibition at 25 µM (human placental NOS): 48%
CC(C)SC(=N)NCCCC[C@@H](N)C(=O)O [Example 9L] | 19 µM | 23 µM | 108 µM | 
CC(C)CSC(=N)NCCCC[C@H](N)C(=O)O [Example 9F, N^6-(imino(2-methylpropylthio)methyl)-L-lysine] |  | 79 µM | 61 µM | 
